Data reported in PubChem BioAssay AID256 (DTP/NCI, 2004).
Values joined by “and” are separate entries in the source; they are usually repeats but may differ in a detail not shown here. Equal entries are not always repeated. Toxic doses and inconclusive results are not listed. The calls were made as follows: active = survival T/C of 150% or more; inactive = T/C below 125% in these data.

System: CD2F1 mice, L1210 leukemia ip, survival T/C
Experiment: NCI In Vivo Anticancer Drug Screen. Data for tumor model L1210 Leukemia (intraperitoneal) in CD2F1 (CDF1) mice
Details: higher = longer survival
In short: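 Read-out first: treated-group measurement over vehicle-control measurement, expressed as a ratio. Animals bore a transplanted tumor line and were dosed with compound or vehicle.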

[1] = endpoint: mean survival time, dose: 100.0 mg/kg/injection, schedule: Q01DX009 (ip), vehicle: saline with Tween-80
[2] = endpoint: mean survival time, dose: 100.0 mg/kg/injection, schedule: Q04DX003 (ip), vehicle: saline with Tween-80
[3] = endpoint: mean survival time, dose: 200.0 mg/kg/injection, schedule: Q01DX009 (ip), vehicle: saline with Tween-80
[4] = endpoint: mean survival time, dose: 200.0 mg/kg/injection, schedule: Q04DX003 (ip), vehicle: saline with Tween-80
[5] = endpoint: mean survival time, dose: 400.0 mg/kg/injection, schedule: Q01DX009 (ip), vehicle: saline with Tween-80
[6] = endpoint: mean survival time, dose: 400.0 mg/kg/injection, schedule: Q04DX003 (ip), vehicle: saline with Tween-80

Measured: T/C

CNS(=O)(=O)c1ccc2c(c1)nc(SC)n2C
inactive: [1] 101 % of control | [2] 102 % of control | [3] 101 % of control | [4] 94 % of control | [5] 93 % of control | [6] 95 % of control

CNC(=O)OCC1C(=O)C2C(CN(C)C3=C1C(=O)C(N)=C(C)C3=O)N2C (stereo not drawn)
inactive: endpoint: mean survival time, dose: 83.0 mg/kg/injection, schedule: Q01DX001 (ip), vehicle: carboxymethylcellulose (CMC) 106 % of control | endpoint: mean survival time, dose: 125.0 mg/kg/injection, schedule: Q01DX001 (ip), vehicle: carboxymethylcellulose (CMC) 102 % of control | endpoint: mean survival time, dose: 187.0 mg/kg/injection, schedule: Q01DX001 (ip), vehicle: carboxymethylcellulose (CMC) 118 % of control

Cc1ccc(S(=O)(=O)OCC(O)C(O)C(O)C(O)C=O)cc1 (stereo not drawn) (tested in a mixture with another compound)
inactive: [1] 103 % of control | [3] 95 % of control | [5] 112 % of control

Nc1nc(N)nc(C(=O)CCC(=O)O)n1
inactive: endpoint: mean survival time, dose: 50.0 mg/kg/injection, schedule: Q01DX009 (ip), vehicle: saline with Tween-80 95 % of control | [1] 95 % of control | [3] 95 % of control

CCCCCCCCCCCCCCCC(=O)Nc1ccccc1CC
inactive: endpoint: mean survival time, dose: 100.0 mg/kg/injection, schedule: Q04DX002 (ip), vehicle: saline with Tween-80 91 % of control | endpoint: mean survival time, dose: 200.0 mg/kg/injection, schedule: Q04DX002 (ip), vehicle: saline with Tween-80 95 % of control | endpoint: mean survival time, dose: 400.0 mg/kg/injection, schedule: Q04DX002 (ip), vehicle: saline with Tween-80 103 % of control

CN1CCCN(C)C1c1cc(Cl)ccc1O
inactive: endpoint: mean survival time, dose: 6.25 mg/kg/injection, schedule: Q01DX009 (ip), vehicle: saline with Tween-80 98 % of control | endpoint: mean survival time, dose: 12.5 mg/kg/injection, schedule: Q01DX009 (ip), vehicle: saline with Tween-80 98 % of control | endpoint: mean survival time, dose: 25.0 mg/kg/injection, schedule: Q01DX009 (ip), vehicle: saline with Tween-80 98 % of control | [2] 103 % of control | [4] 121 % of control | [6] 95 % of control

Cc1cc2ccccc2[n+](C)c1-c1ccccc1Cl (tested in a mixture with another compound)
inactive: endpoint: mean survival time, dose: 5.0 mg/kg/injection, schedule: Q01DX009 (ip), vehicle: saline 104 % of control | endpoint: mean survival time, dose: 5.0 mg/kg/injection, schedule: Q04DX003 (ip), vehicle: saline 101 % of control | endpoint: mean survival time, dose: 10.0 mg/kg/injection, schedule: Q01DX009 (ip), vehicle: saline 100 % of control | endpoint: mean survival time, dose: 10.0 mg/kg/injection, schedule: Q04DX003 (ip), vehicle: saline 101 % of control | endpoint: mean survival time, dose: 20.0 mg/kg/injection, schedule: Q04DX003 (ip), vehicle: saline 105 % of control

Cc1cc(C)c(C(=O)O)c(C(=O)O)c1
inactive: endpoint: mean survival time, dose: 100.0 mg/kg/injection, schedule: Q01DX001 (ip), vehicle: Klucel (hydroxypropylcellulose) (HPC) 106 % of control | endpoint: mean survival time, dose: 200.0 mg/kg/injection, schedule: Q01DX001 (ip), vehicle: Klucel (hydroxypropylcellulose) (HPC) 95 % of control | endpoint: mean survival time, dose: 400.0 mg/kg/injection, schedule: Q01DX001 (ip), vehicle: Klucel (hydroxypropylcellulose) (HPC) 106 % of control

Nc1nc2c(ncn2C2OC(CO)C(O)C2O)c(=O)[nH]1.Nc1nc2c(ncn2C2OC(CO)C(O)C2O)c(=O)[nH]1.[NH2-].[NH2-].[Pt+2] (stereo not drawn)
inactive: endpoint: mean survival time, dose: 6.25 mg/kg/injection, schedule: Q01DX009 (ip), vehicle: water 102 % of control and 106 % of control | endpoint: mean survival time, dose: 12.5 mg/kg/injection, schedule: Q01DX009 (ip), vehicle: water 106 % of control and 112 % of control | endpoint: mean survival time, dose: 25.0 mg/kg/injection, schedule: Q01DX009 (ip), vehicle: water 113 % of control and 124 % of control | endpoint: mean survival time, dose: 50.0 mg/kg/injection, schedule: Q01DX009 (ip), vehicle: water 113 % of control | endpoint: mean survival time, dose: 100.0 mg/kg/injection, schedule: Q01DX009 (ip), vehicle: water 123 % of control

O=S(=O)(OCCCCCOS(=O)(=O)c1cccnc1)c1cccnc1
inactive: endpoint: mean survival time, dose: 10.0 mg/kg/injection, schedule: Q04DX002 (ip), vehicle: saline with Tween-80 95 % of control | endpoint: mean survival time, dose: 40.0 mg/kg/injection, schedule: Q04DX002 (ip), vehicle: saline with Tween-80 98 % of control

COC1C(N)C(OC2C(Oc3cccc4c(O)c5c(=O)oc6ccc(C)c7c(=O)oc(c34)c5c67)OC(C)C(O)C2(C)O)OC(C)C1O (stereo not drawn)
active: endpoint: median survival time, dose: 1.25 mg/kg/injection, schedule: Q01DX005 (ip), vehicle: other 151 % of control | endpoint: median survival time, dose: 3.0 mg/kg/injection, schedule: Q01DX005 (ip), vehicle: other 177 % of control | endpoint: median survival time, dose: 5.0 mg/kg/injection, schedule: Q01DX005 (ip), vehicle: other 164 % of control and 177 % of control

CC(=O)Oc1cccc2c1C(=O)c1c(OC(C)=O)cc(C)cc1C2=O
inactive: endpoint: mean survival time, dose: 100.0 mg/kg/injection, schedule: Q01DX001 (ip), vehicle: saline 101 % of control | endpoint: mean survival time, dose: 200.0 mg/kg/injection, schedule: Q01DX001 (ip), vehicle: saline 101 % of control | endpoint: mean survival time, dose: 400.0 mg/kg/injection, schedule: Q01DX001 (ip), vehicle: saline 98 % of control

COC(=O)C1OC(OC(C)=O)C(OC(C)=O)C(OC(C)=O)C1OC(C)=O (stereo not drawn)
inactive: endpoint: mean survival time, dose: 75.0 mg/kg/injection, schedule: Q04DX003 (ip), vehicle: saline with Tween-80 98 % of control | endpoint: mean survival time, dose: 150.0 mg/kg/injection, schedule: Q04DX003 (ip), vehicle: saline with Tween-80 98 % of control | endpoint: mean survival time, dose: 300.0 mg/kg/injection, schedule: Q04DX003 (ip), vehicle: saline with Tween-80 92 % of control
